Laboratory results published in US11541029B2, “High penetration compositions and their applications” (Techfields Pharma Co., Ltd., priority 2008, dated 2023).

Key:
[1] = test system: rats given sterilized E. coli suspension as a pyrogen; assay: Antipyretic activity of aspirin and its HPC (Study B); format: in vivo; conditions: for body temperature: in °C (unit assumed)
Protocol: […] Group A was the control group. The body temperature of rats was taken at 90 min. intervals before and after the administration of the test compounds.

[2] = test system: GK rats (SLAC/GK, type 2 diabetes); assay: Anti-diabetes (type II) activity of HPCs of NSAIAs in GK rats; format: in vivo; conditions: 30 mg/kg transdermally once per day, no fasting
Outline: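 GK (type 2 diabetic) and normal SD rats, 14-16 weeks old, n=7, received 30 mg/kg test compound in 25% ethanol transdermally on a 6 cm^2 shaved back area once daily at 8 am for 6 weeks. Non-fasting blood glucose was measured at 4:30 pm every 3 days from week 3 to week 6.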

`CCN(CC)CCOC(=O)c1ccccc1OC(C)=O.Cl` [P-1, diethylaminoethyl acetylsalicylate.HCl salt] was tested, and the antipyretic activity ([1]; 20 mg/kg, oral administration) was “almost the same antipyretic activity as 100 mg/kg of aspirin”, the body temperature ([1]; 20 mg/kg, orally, t = 0 min.) was 37.6 ± 0.3 and the body temperature ([1]; 20 mg/kg, orally, t = 90 min.) was 37.1 ± 0.4. The body temperature ([1]; 20 mg/kg, orally, t = 180 min.) was 36.8 ± 0.2, the body temperature ([1]; 20 mg/kg, orally, t = 270 min.) was 36.5 ± 0.3 and the body temperature ([1]; 50 mg/kg, orally, t = 0 min.) was 37.6 ± 0.3. For the same molecule, the body temperature ([1]; 50 mg/kg, orally, t = 90 min.) was 36.7 ± 0.3, the body temperature ([1]; 50 mg/kg, orally, t = 180 min.) was 36.5 ± 0.2 and the body temperature ([1]; 50 mg/kg, orally, t = 270 min.) was 36.4 ± 0.3. It also gave a body temperature ([1]; 100 mg/kg, orally, t = 0 min.) of 37.6 ± 0.4, a body temperature ([1]; 100 mg/kg, orally, t = 90 min.) of 36.6 ± 0.4 and a body temperature ([1]; 100 mg/kg, orally, t = 180 min.) of 36.5 ± 0.3. It also gave a body temperature ([1]; 100 mg/kg, orally, t = 270 min.) of 36.4 ± 0.3, a body temperature ([1]; groups H/I, 50 mg/kg, transdermally, t = 0 min.) of 37.5 ± 0.3 and a body temperature ([1]; groups H/I, 50 mg/kg, transdermally, t = 90 min.) of 36.5 ± 0.2. It also gave a body temperature ([1]; groups H/I, 50 mg/kg, transdermally, t = 180 min.) of 36.3 ± 0.3, a body temperature ([1]; groups H/I, 50 mg/kg, transdermally, t = 270 min.) of 36.4 ± 0.2 and a body temperature ([1]; groups J/K, 20 mg/kg, transdermally, t = 0 min.) of 37.5 ± 0.4. It also gave a body temperature ([1]; groups J/K, 20 mg/kg, transdermally, t = 90 min.) of 36.7 ± 0.2, a body temperature ([1]; groups J/K, 20 mg/kg, transdermally, t = 180 min.) of 36.4 ± 0.2 and a body temperature ([1]; groups J/K, 20 mg/kg, transdermally, t = 270 min.) of 36.4 ± 0.2. The body temperature ([1]; groups L/M, 20 mg/kg, transdermally, t = 0 min.) was 37.6 ± 0.2, the body temperature ([1]; groups L/M, 20 mg/kg, transdermally, t = 90 min.) was 36.5 ± 0.4 and the body temperature ([1]; groups L/M, 20 mg/kg, transdermally, t = 180 min.) was 36.4 ± 0.3. For the same molecule, the body temperature ([1]; groups L/M, 20 mg/kg, transdermally, t = 270 min.) was 36.5 ± 0.2, the “blood glucose, Average (Week 2-5)” value [2] was 6.4 ± 2.4 mmol/L and the “blood glucose, Day 1” value [2] was 17.1 ± 2.8 mmol/L.
